# In patent publication US6583120B1, “Erythromycin derivative with antibiotic activity” (Zambon Group S.A., priority 1998, dated 2003):
# Columns and labels:
# [1] = system: Escherichia coli; assay: In vitro antibacterial activity (MIC), Gram-negative; settings: 3 strains tested
# [2] = system: Streptococcus pyogenes C 203; assay: In vivo therapeutic efficacy (PD50), experimental pulmonary infection in mice; settings: for PD50: mice, pulmonary infection
# [3] = system: Klebsiella pneumoniae; assay: In vitro antibacterial activity (MIC), Gram-negative; settings: for MIC Range: 6 strains tested; for MIC50 / MIC90: Klebsiella pneumoniae
# [4] = system: Streptococcus pneumoniae UC 41; assay: In vivo therapeutic efficacy (PD50), experimental pulmonary infection in mice; settings: pulmonitis
# [5] = system: recently clinically isolated, erythromycin-resistant strains of Streptococcus pneumoniae; assay: In vitro antibacterial activity (MIC), broth-scalar dilution micromethod, erythromycin-resistant clinical isolates; settings: 18 h, 37° C.
# [6] = system: Streptococcus pneumoniae; assay: In vitro antibacterial activity (MIC), erythromycin-sensitive strains; settings: for MIC Range: 18 strains tested, erythromycin-sensitive; for MIC50 / MIC90: Streptococcus pneumoniae
# [7] = system: Streptococcus group A; assay: as above; settings: for MIC Range: 15 strains tested, erythromycin-sensitive
# [8] = system: Staphylococcus aureus; assay: as above; settings: for MIC Range: 13 strains tested, erythromycin-sensitive; for MIC50 / MIC90: Staphylococcus aureus
# [9] = system: Streptococcus agalactiae; assay: as above; settings: for MIC Range: 4 strains tested, erythromycin-sensitive; for MIC50 / MIC90: Streptococcus agalactiae
# [10] = system: Branhamella catarrhalis; assay: In vitro antibacterial activity (MIC), Gram-negative; settings: for MIC Range: 5 strains tested; for MIC50 / MIC90: Moraxella catarrhalis
# [11] = system: Haemophilus influenzae; assay: as above; settings: for MIC Range: 11 strains tested; for MIC50 / MIC90: Haemophilus influenzae
# [12] = oral single dose 1 hour after the infection
# [13] = oral single dose 24 hours before the infection
# [14] = oral single dose 48 hours before the infection
# [15] = oral single dose 72 hours before the infection
# [16] = Strain 871, erythromycin-resistant
# [17] = Strain 1035, erythromycin-resistant
# [18] = Strain 1047, erythromycin-resistant
# [19] = Strain 1051, erythromycin-resistant
# [20] = Strain 1188, erythromycin-resistant
# [21] = Strain 1392, erythromycin-resistant
# [22] = Strain 9114, erythromycin-resistant
# [23] = Strain 9117, erythromycin-resistant
Structure (SMILES),MIC Range [1],MIC Range [3],MIC50 [3],MIC90 [3],MIC Range [6],MIC50 [6],MIC90 [6],MIC50 [7],MIC90 [7],MIC Range [7],MIC Range [8],MIC50 [8],MIC90 [8],MIC Range [9],MIC50 [9],MIC90 [9],MIC Range [10],MIC50 [10],MIC90 [10],MIC Range [11],further results
CC[C@H]1OC(=O)[C@H](C)[C@@H](O[C@H]2C[C@@](C)(OC)[C@@H](O)[C@H](C)O2)[C@H](C)[C@@H](O[C@@H]2O[C@H](C)C[C@H](N(C)C)[C@H]2O)[C@](C)(O)C[C@@H](C)CN(C)[C@H](C)[C@@H](O)[C@]1(C)O [Azithromycin],2 to 4 µg/mL,4 to 8 µg/mL,4 µg/mL,8 µg/mL,0.0156 to 0.5 µg/mL,0.0312 µg/mL,0.0625 µg/mL,0.0625 µg/mL,0.125 µg/mL,0.0625 to 1 µg/mL,0.5 to 1 µg/mL,0.5 µg/mL,1 µg/mL,0.0312 to 0.25 µg/mL,0.0625 µg/mL,0.25 µg/mL,0.0078 to 0.0156 µg/mL,0.0156 µg/mL,0.0156 µg/mL,0.25 to 1 µg/mL,"therapeutic efficacy (duration of action in vivo), in words ([2]; 72 hours after administration): lose most of their efficacy; PD50 [2, 12]: 5.32 µmol/kg; PD50 [2, 13]: 16.45 µmol/kg; PD50 [2, 14]: 34.13 µmol/kg; PD50 [2, 15]: >85.4 µmol/kg; PD50 [4, 13]: 16.45 µmol/kg; PD50 [4, 14]: 34.13 µmol/kg; MIC [5, 16]: 2 µg/mL; MIC [5, 17]: 2 µg/mL; MIC [5, 18]: 4 µg/mL; MIC [5, 19]: 64 µg/mL; MIC [5, 20]: 8 µg/mL; MIC [5, 21]: 16 µg/mL; MIC [5, 22]: 32 µg/mL; MIC [5, 23]: 64 µg/mL; MIC50 [11]: 0.5 µg/mL; MIC90 [11]: 1 µg/mL"
CC[C@H]1OC(=O)[C@H](C)[C@@H](O[C@H]2C[C@@](C)(OC)[C@@H](O)[C@H](C)O2)[C@H](C)[C@@H](O[C@@H]2O[C@H](C)C[C@H](N(C)C)[C@H]2O)[C@](C)(OC)C[C@@H](C)C(=O)[C@H](C)[C@@H](O)[C@]1(C)O [Clarithromycin],16 to 64 µg/mL,64 µg/mL,64 µg/mL,64 µg/mL,0.0039 to 0.125 µg/mL,0.0156 µg/mL,0.0156 µg/mL,0.0156 µg/mL,0.0156 µg/mL,0.0078 to 0.25 µg/mL,0.125 to 0.25 µg/mL,0.25 µg/mL,0.25 µg/mL,0.0156 to 0.0625 µg/mL,0.0312 µg/mL,0.0625 µg/mL,0.0078 to 0.0156 µg/mL,0.0156 µg/mL,0.0156 µg/mL,2 to 8 µg/mL,"therapeutic efficacy (duration of action in vivo), in words ([2]; administered 24 hours before the infection): lose most of their efficacy; PD50 [2, 12]: 7.38 µmol/kg; PD50 [2, 13]: >85.6 µmol/kg"
CC[C@H]1OC(=O)[C@H](C)[C@@H](OC2CC(C)(OC)C(O)C(C)O2)[C@H](C)[C@@H](OC2OC(C)CC(N(C)C)C2O)[C@](C)(O)C[C@@H](C)/C(=N\OCCNCCCCCCNCc2nccs2)[C@H](C)[C@@H](O)[C@]1(C)O (stereo partly shown) [Compound A],1 to 8 µg/mL,16 to 32 µg/mL,16 µg/mL,32 µg/mL,0.0019 to 0.25 µg/mL,0.0039 µg/mL,0.0156 µg/mL,0.0156 µg/mL,0.0312 µg/mL,0.0078 to 0.5 µg/mL,0.25 to 1 µg/mL,0.5 µg/mL,0.5 µg/mL,0.0078 to 0.25 µg/mL,0.0156 µg/mL,0.25 µg/mL,0.0019 to 0.125 µg/mL,0.125 µg/mL,0.125 µg/mL,1 to 8 µg/mL,"therapeutic efficacy (duration of action in vivo), in words ([2]; 72 hours after administration): still effective; PD50 [2, 12]: 15.45 µmol/kg; PD50 [2, 13]: 16.39 µmol/kg; PD50 [2, 14]: 25.90 µmol/kg; PD50 [2, 15]: 31.51 µmol/kg; PD50 [4, 13]: 16.39 µmol/kg; PD50 [4, 14]: 25.90 µmol/kg; MIC [5, 16]: 0.5 µg/mL; MIC [5, 17]: 2 µg/mL; MIC [5, 18]: 2 µg/mL; MIC [5, 19]: 1 µg/mL; MIC [5, 20]: 2 µg/mL; MIC [5, 21]: 4 µg/mL; MIC [5, 22]: 0.25 µg/mL; MIC [5, 23]: 0.25 µg/mL; MIC50 [11]: 4 µg/mL; MIC90 [11]: 4 µg/mL"
CC[C@H]1OC(=O)[C@H](C)[C@@H](O[C@H]2C[C@@](C)(OC)[C@@H](O)[C@H](C)O2)[C@H](C)[C@@H](O[C@@H]2O[C@H](C)C[C@H](N(C)C)[C@H]2O)[C@](C)(O)C[C@@H](C)/C(=N\OCOCCOC)[C@H](C)[C@@H](O)[C@]1(C)O [Roxithromycin],–,>64 µg/mL,> 64 µg/mL,> 64 µg/mL,0.0156 to 0.5 µg/mL,0.0625 µg/mL,0.0625 µg/mL,0.0625 µg/mL,0.0625 µg/mL,0.0312 to 1 µg/mL,0.25 to 1 µg/mL,0.5 µg/mL,1 µg/mL,0.0625 to 0.25 µg/mL,0.125 µg/mL,0.25 µg/mL,0.0312 to 0.0625 µg/mL,0.0312 µg/mL,0.0625 µg/mL,4 to 16 µg/mL,MIC50 [11]: 8 µg/mL; MIC90 [11]: 8 µg/mL
